Measurements: ChEMBL document CHEMBL1201862, “PubChem BioAssay data set” (2004)
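Step 1: Grow cells in 96-well plates. Step 2: Expose to compound for 48 hours at 5 concentrations. Step 3: Interpolate endpoints linearly; if unreached, use highest concentration. GI50: concentration for 50% inhibition of growth.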 Activity calls are given as the source filed them. No stated cut-off is given here; in the data, active = GI50 up to about 1.1 µM and inactive = higher.

What was measured:
Experiment in all cases: inhibition of tumour cell growth, NCI panel, 48 h
[1] = test system: UACC-62
[2] = test system: HCC 2998
[3] = test system: UO-31
[4] = test system: RPMI-8226
[5] = test system: SK-OV-3
[6] = test system: NCI-H460
[7] = test system: SNB-75
[8] = test system: OVCAR-5
[9] = test system: ACHN
[10] = test system: SNB-19
[11] = test system: SN12C
[12] = test system: SK-MEL-2
[13] = test system: HOP-92
[14] = test system: HOP-62
[15] = test system: CAKI-1
[16] = test system: CCRF-CEM
[17] = test system: COLO 205
[18] = test system: KM12

Measured: GI50

CC1C[C@]2(C[C@@H](C)C(=O)O2)O[C@@H]2CC3(C)[C@@H]4CCC5C(C)(C)OC(=O)C[C@H]6OO[C@]4(CC[C@]3(C)C12)CC56O (stereo not given in full)
inactive: [1] > 100 µM | [2] > 100 µM | [3] > 100 µM | [4] > 100 µM | [5] > 100 µM | [6] > 100 µM | [7] > 100 µM | [8] > 100 µM | [9] > 100 µM | [10] > 100 µM | [11] > 100 µM | [12] > 100 µM

CC1=C(C(=O)Nc2ccc([N+](=O)[O-])cc2)C(c2ccccc2F)C(C(=O)Nc2ccc([N+](=O)[O-])cc2)=C(C)N1
inactive: [2] 5.94 µM | [3] 6.61 µM | [13] 4.45 µM | [14] 15 µM | [15] 18.2 µM | [4] 3.8 µM | [16] 7 µM | [5] 29.8 µM | [6] 13.6 µM | [17] 13 µM | [18] 9.14 µM | [7] 13.9 µM | [8] 35.1 µM | [9] 4.21 µM | [10] 21.1 µM | [11] 8.18 µM | [12] 9.31 µM

c1ccc2c(c1)cc1n2CC2CN=NC12 (stereo not given)
inactive: [1] > 100 µM | [2] > 100 µM | [3] > 100 µM | [14] > 100 µM | [15] > 100 µM | [4] > 100 µM | [5] > 100 µM | [6] > 100 µM | [18] > 100 µM | [7] 47.8 µM | [8] > 100 µM | [9] > 100 µM | [10] > 100 µM | [11] > 100 µM | [12] > 100 µM

CCC1CN2CCc3cc(OC)c(OC)cc3C2CC1CC1c2cc(OC)c(OC)cc2CCN1C(=O)CNC(=O)OC(C)(C)C (stereo not given)
inactive: [1] 19.7 µM | [2] 3.1 µM | [3] 24.4 µM | [15] 21.7 µM | [4] 19 µM | [16] 3.34 µM | [5] 28.6 µM | [6] 6.49 µM | [17] 3.44 µM | [18] 3.31 µM | [7] 20.9 µM | [8] 24.3 µM | [9] 21.5 µM | [10] 13.9 µM | [11] 24.1 µM | [12] 12.4 µM

O=C(c1ccccc1)n1cc(/C=C/[N+](=O)[O-])c2ccccc21
inactive: [1] 20.1 µM | [3] 20.1 µM | [13] 23.8 µM | [14] > 100 µM | [15] 84.9 µM | [4] 15.7 µM | [16] 13.4 µM | [5] > 100 µM | [6] 21.9 µM | [17] 24.7 µM | [18] 18.5 µM | [7] 32.7 µM | [8] > 100 µM | [9] > 100 µM | [10] 30.7 µM | [11] 39.2 µM | [12] 19.9 µM

Nc1nc(SCCC/C=C/I)nc2c1ncn2C1OC(CO)C(O)C1O (stereo not given)
inactive: [1] > 202 µM | [3] > 202 µM | [13] > 202 µM | [14] > 202 µM | [15] > 202 µM | [4] > 202 µM | [16] 98.4 µM | [5] > 202 µM | [6] > 202 µM | [17] > 202 µM | [18] > 202 µM | [7] 78.9 µM | [8] > 202 µM | [9] > 202 µM | [10] > 202 µM | [11] > 202 µM | [12] > 202 µM

COc1cccc(C2CC23C(=O)NC(=O)NC3=O)c1 (stereo not given)
inactive: [1] > 100 µM | [2] > 100 µM | [3] > 100 µM | [13] > 100 µM | [14] > 100 µM | [15] > 100 µM | [4] > 100 µM | [16] > 100 µM | [5] > 100 µM | [6] > 100 µM | [17] > 100 µM | [18] > 100 µM | [8] > 100 µM | [9] > 100 µM | [10] > 100 µM | [11] > 100 µM | [12] > 100 µM

CCC12CCCN(Cc3ccccc3)C1c1c(n(C)c3ccccc13)[C@H](C(=O)OC)C2 (stereo not given in full)
inactive: [1] > 239 µM | [2] > 239 µM | [13] 10.6 µM | [14] > 239 µM | [15] 173 µM | [4] > 239 µM | [16] > 239 µM | [5] > 239 µM | [6] > 239 µM | [17] 112 µM | [18] > 239 µM | [8] 147 µM | [9] > 239 µM | [10] > 239 µM | [11] 224 µM | [12] > 239 µM

CCOP(=O)(OCC)C1=NC=CC=CC1n1c(-c2ccccc2)nn(CC)c1=O (stereo not given)
inactive: [1] > 100 µM | [2] > 100 µM | [13] 7.06 µM | [14] > 100 µM | [15] > 100 µM | [4] > 100 µM | [16] > 100 µM | [5] > 100 µM | [6] > 100 µM | [17] > 100 µM | [18] > 100 µM | [9] > 100 µM | [10] > 100 µM | [11] > 100 µM | [12] > 100 µM

C#Cc1c(C)c(/C=C/C(C)=C\C(=O)OC)n(C)c1C
inactive: [1] 70.8 µM | [2] > 100 µM | [3] 63.4 µM | [13] > 100 µM | [14] 71.1 µM | [15] > 100 µM | [4] 18.8 µM | [16] 33.8 µM | [5] > 100 µM | [6] 63.7 µM | [17] 61.2 µM | [18] 99.1 µM | [8] > 100 µM | [9] 47.8 µM | [10] > 100 µM | [11] > 100 µM

COc1ccc(/C=C2\C(=O)N(C(=O)Cc3ccccc3)N=C2C)cc1OC
inactive: [2] > 100 µM | [3] > 100 µM | [14] > 100 µM | [15] > 100 µM | [4] > 100 µM | [16] > 100 µM | [17] > 100 µM | [18] > 100 µM | [7] > 100 µM | [8] > 100 µM | [9] > 100 µM | [10] > 100 µM | [11] > 100 µM | [12] > 100 µM

O=C1OC(=O)c2c1c(-c1ccccc1)nc1ccccc21
inactive: [1] > 100 µM | [2] > 100 µM | [3] > 100 µM | [14] > 100 µM | [15] > 100 µM | [4] > 100 µM | [16] > 100 µM | [5] > 100 µM | [6] > 100 µM | [17] > 100 µM | [18] > 100 µM | [7] > 100 µM | [10] > 100 µM | [11] > 100 µM | [12] > 100 µM

NNC(=S)N/N=C(/C(=O)Nc1ccc([N+](=O)[O-])cc1)c1nc2ccc([N+](=O)[O-])cc2nc1O
inactive: [1] > 100 µM | [2] > 100 µM | [3] > 100 µM | [13] > 100 µM | [15] > 100 µM | [4] > 100 µM | [16] > 100 µM | [5] > 100 µM | [6] > 100 µM | [17] > 100 µM | [18] > 100 µM | [7] > 100 µM | [8] > 100 µM | [9] 95.3 µM | [11] > 100 µM | [12] > 100 µM

CC1(C)Oc2ccccc2[N+]([O-])=C1c1ccccc1
inactive: [1] > 100 µM | [2] > 100 µM | [3] > 100 µM | [13] > 100 µM | [14] > 100 µM | [15] > 100 µM | [4] > 100 µM | [16] > 100 µM | [5] > 100 µM | [6] > 100 µM | [17] > 100 µM | [7] > 100 µM | [9] > 100 µM | [10] > 100 µM | [11] > 100 µM

Cc1cccc2c1Sc1ccccc1C2NC(=O)CCN(C)C (stereo not given)
inactive: [1] > 100 µM | [2] > 100 µM | [3] > 100 µM | [14] > 100 µM | [4] > 100 µM | [16] > 100 µM | [5] > 100 µM | [6] > 100 µM | [17] > 100 µM | [7] 96.4 µM | [8] > 100 µM | [9] > 100 µM | [10] > 100 µM | [11] > 100 µM

COC(=O)c1sc(=NC(=S)N2CCCCC2)sc1C(=O)OC
inactive: [1] > 100 µM | [2] > 100 µM | [3] 98.4 µM | [14] > 100 µM | [15] > 100 µM | [4] > 100 µM | [16] 32.7 µM | [5] > 100 µM | [6] 6.38 µM | [17] 63 µM | [18] 91.4 µM | [7] > 100 µM | [9] > 100 µM | [10] > 100 µM | [11] > 100 µM | [12] > 100 µM

COC(=O)/C(C#N)=C1\CCC(OC)N1 (stereo not given)
inactive: [1] > 100 µM | [2] > 100 µM | [3] > 100 µM | [14] > 100 µM | [15] > 100 µM | [4] > 100 µM | [16] > 100 µM | [5] > 100 µM | [6] > 100 µM | [17] > 100 µM | [18] > 100 µM | [7] > 100 µM | [8] > 100 µM | [9] > 100 µM | [10] > 100 µM | [11] > 100 µM | [12] > 100 µM
